Measurements: the CheMixHub viscosity set
± gives the uncertainty stated by the source.

Assay: xn = mol fraction of the nth substance listed

Cc1ncc(C[n+]2csc(CCO)c2C)c(N)n1.Cl.[Cl-] + O
viscosity (293.15 K, 101 kPa, x1 = 0.00036): 1.014 ± 0.021 mPa·s
viscosity (293.15 K, 101 kPa, x1 = 0.00072): 1.027 ± 0.021 mPa·s
viscosity (293.15 K, 101 kPa, x1 = 0.00108): 1.041 ± 0.022 mPa·s
viscosity (293.15 K, 101 kPa, x1 = 0.00144): 1.057 ± 0.022 mPa·s
viscosity (293.15 K, 101.3 kPa, x1 = 0.000445): 1.015 ± 0.023 mPa·s
viscosity (293.15 K, 101.3 kPa, x1 = 0.000886): 1.029 ± 0.023 mPa·s
viscosity (293.15 K, 101.3 kPa, x1 = 0.00177): 1.063 ± 0.024 mPa·s
viscosity (293.15 K, 101.3 kPa, x1 = 0.002215): 1.08 ± 0.025 mPa·s
viscosity (298.15 K, 101 kPa, x1 = 0.00036): 0.9013 ± 0.019 mPa·s
viscosity (298.15 K, 101 kPa, x1 = 0.000364): 0.9024 ± 0.0082 mPa·s
viscosity (298.15 K, 101 kPa, x1 = 0.000385): 0.914 ± 0.023 mPa·s
viscosity (298.15 K, 101 kPa, x1 = 0.000657): 0.914 ± 0.0083 mPa·s
viscosity (298.15 K, 101 kPa, x1 = 0.00072): 0.9129 ± 0.019 mPa·s
viscosity (298.15 K, 101 kPa, x1 = 0.000731): 0.929 ± 0.023 mPa·s
viscosity (298.15 K, 101 kPa, x1 = 0.000952): 0.9244 ± 0.0083 mPa·s
viscosity (298.15 K, 101 kPa, x1 = 0.00107): 0.941 ± 0.024 mPa·s
viscosity (298.15 K, 101 kPa, x1 = 0.00108): 0.9266 ± 0.019 mPa·s
viscosity (298.15 K, 101 kPa, x1 = 0.00125): 0.9372 ± 0.0084 mPa·s
viscosity (298.15 K, 101 kPa, x1 = 0.00144): 0.9406 ± 0.02 mPa·s
viscosity (298.15 K, 101 kPa, x1 = 0.00145): 0.96 ± 0.024 mPa·s
viscosity (298.15 K, 101 kPa, x1 = 0.00155): 0.9488 ± 0.0084 mPa·s
viscosity (298.15 K, 101 kPa, x1 = 0.001658): 0.9532 ± 0.0068 mPa·s
viscosity (298.15 K, 101 kPa, x1 = 0.001695): 0.9545 ± 0.0069 mPa·s
viscosity (298.15 K, 101 kPa, x1 = 0.001856): 0.959 ± 0.0085 mPa·s
viscosity (298.15 K, 101 kPa, x1 = 0.001922): 0.98 ± 0.024 mPa·s
viscosity (298.15 K, 101 kPa, x1 = 0.002519): 0.9786 ± 0.0069 mPa·s
viscosity (298.15 K, 101 kPa, x1 = 0.002881): 1.013 ± 0.025 mPa·s
viscosity (298.15 K, 101 kPa, x1 = 0.003713): 1.05 ± 0.026 mPa·s
viscosity (298.15 K, 101 kPa, x1 = 0.003828): 1.034 ± 0.0071 mPa·s
viscosity (298.15 K, 101 kPa, x1 = 0.004291): 1.055 ± 0.0072 mPa·s
viscosity (298.15 K, 101 kPa, x1 = 0.004534): 1.083 ± 0.027 mPa·s
viscosity (298.15 K, 101 kPa, x1 = 0.005245): 1.097 ± 0.0075 mPa·s
viscosity (298.15 K, 101 kPa, x1 = 0.005408): 1.111 ± 0.027 mPa·s
viscosity (298.15 K, 101 kPa, x1 = 0.007149): 1.185 ± 0.029 mPa·s
viscosity (298.15 K, 101 kPa, x1 = 0.00796): 1.228 ± 0.03 mPa·s
viscosity (298.15 K, 101 kPa, x1 = 0.009056): 1.254 ± 0.03 mPa·s
viscosity (298.15 K, 101 kPa, x1 = 0.009864): 1.281 ± 0.031 mPa·s
viscosity (298.15 K, 101.3 kPa, x1 = 0.000445): 0.902 ± 0.02 mPa·s
viscosity (298.15 K, 101.3 kPa, x1 = 0.000886): 0.916 ± 0.021 mPa·s
viscosity (298.15 K, 101.3 kPa, x1 = 0.00133): 0.931 ± 0.021 mPa·s
viscosity (298.15 K, 101.3 kPa, x1 = 0.00177): 0.947 ± 0.022 mPa·s
viscosity (298.15 K, 101.3 kPa, x1 = 0.002215): 0.963 ± 0.024 mPa·s
viscosity (303.15 K, 101 kPa, x1 = 0.00036): 0.8078 ± 0.017 mPa·s
viscosity (303.15 K, 101 kPa, x1 = 0.00072): 0.8185 ± 0.017 mPa·s
viscosity (303.15 K, 101 kPa, x1 = 0.00108): 0.8322 ± 0.017 mPa·s
viscosity (303.15 K, 101 kPa, x1 = 0.00144): 0.8443 ± 0.018 mPa·s
viscosity (303.15 K, 101.3 kPa, x1 = 0.000445): 0.808 ± 0.018 mPa·s
viscosity (303.15 K, 101.3 kPa, x1 = 0.000886): 0.822 ± 0.019 mPa·s
viscosity (303.15 K, 101.3 kPa, x1 = 0.00133): 0.836 ± 0.019 mPa·s
viscosity (303.15 K, 101.3 kPa, x1 = 0.00177): 0.85 ± 0.02 mPa·s
viscosity (303.15 K, 101.3 kPa, x1 = 0.002215): 0.864 ± 0.021 mPa·s
viscosity (308.15 K, 101 kPa, x1 = 0.00036): 0.729 ± 0.015 mPa·s
viscosity (308.15 K, 101 kPa, x1 = 0.000364): 0.7301 ± 0.0076 mPa·s
viscosity (308.15 K, 101 kPa, x1 = 0.000657): 0.7393 ± 0.0077 mPa·s
viscosity (308.15 K, 101 kPa, x1 = 0.00072): 0.7391 ± 0.015 mPa·s
viscosity (308.15 K, 101 kPa, x1 = 0.000952): 0.7485 ± 0.0077 mPa·s
viscosity (308.15 K, 101 kPa, x1 = 0.00108): 0.7506 ± 0.016 mPa·s
viscosity (308.15 K, 101 kPa, x1 = 0.00125): 0.7576 ± 0.0077 mPa·s
viscosity (308.15 K, 101 kPa, x1 = 0.00144): 0.7631 ± 0.016 mPa·s
viscosity (308.15 K, 101 kPa, x1 = 0.00155): 0.768 ± 0.0078 mPa·s
viscosity (308.15 K, 101 kPa, x1 = 0.001658): 0.7726 ± 0.0061 mPa·s
viscosity (308.15 K, 101 kPa, x1 = 0.001695): 0.7711 ± 0.0061 mPa·s
viscosity (308.15 K, 101 kPa, x1 = 0.001856): 0.7772 ± 0.0078 mPa·s
viscosity (308.15 K, 101 kPa, x1 = 0.002519): 0.8005 ± 0.0062 mPa·s
viscosity (308.15 K, 101 kPa, x1 = 0.003828): 0.837 ± 0.0063 mPa·s
viscosity (308.15 K, 101 kPa, x1 = 0.004291): 0.8515 ± 0.0064 mPa·s
viscosity (308.15 K, 101 kPa, x1 = 0.005245): 0.8799 ± 0.0065 mPa·s
viscosity (308.15 K, 101.3 kPa, x1 = 0.000445): 0.73 ± 0.017 mPa·s
viscosity (308.15 K, 101.3 kPa, x1 = 0.000886): 0.743 ± 0.017 mPa·s
viscosity (308.15 K, 101.3 kPa, x1 = 0.00177): 0.77 ± 0.018 mPa·s
viscosity (308.15 K, 101.3 kPa, x1 = 0.002215): 0.783 ± 0.019 mPa·s
viscosity (313.15 K, 101 kPa, x1 = 0.00036): 0.6623 ± 0.014 mPa·s
viscosity (313.15 K, 101 kPa, x1 = 0.00072): 0.6722 ± 0.014 mPa·s
viscosity (313.15 K, 101 kPa, x1 = 0.00108): 0.6831 ± 0.014 mPa·s
viscosity (313.15 K, 101 kPa, x1 = 0.00144): 0.6947 ± 0.015 mPa·s
viscosity (313.15 K, 101.3 kPa, x1 = 0.000445): 0.664 ± 0.015 mPa·s
viscosity (313.15 K, 101.3 kPa, x1 = 0.000886): 0.676 ± 0.016 mPa·s
viscosity (313.15 K, 101.3 kPa, x1 = 0.00133): 0.689 ± 0.016 mPa·s
viscosity (313.15 K, 101.3 kPa, x1 = 0.00177): 0.702 ± 0.016 mPa·s
viscosity (313.15 K, 101.3 kPa, x1 = 0.002215): 0.713 ± 0.017 mPa·s
viscosity (318.15 K, 101 kPa, x1 = 0.000364): 0.6037 ± 0.0072 mPa·s
viscosity (318.15 K, 101 kPa, x1 = 0.000657): 0.6116 ± 0.0072 mPa·s
viscosity (318.15 K, 101 kPa, x1 = 0.000952): 0.6196 ± 0.0073 mPa·s
viscosity (318.15 K, 101 kPa, x1 = 0.00125): 0.6275 ± 0.0073 mPa·s
viscosity (318.15 K, 101 kPa, x1 = 0.00155): 0.6343 ± 0.0073 mPa·s
viscosity (318.15 K, 101 kPa, x1 = 0.001658): 0.6377 ± 0.0056 mPa·s
viscosity (318.15 K, 101 kPa, x1 = 0.001695): 0.6389 ± 0.0056 mPa·s
viscosity (318.15 K, 101 kPa, x1 = 0.001856): 0.6413 ± 0.0073 mPa·s
viscosity (318.15 K, 101 kPa, x1 = 0.002519): 0.6591 ± 0.0057 mPa·s
viscosity (318.15 K, 101 kPa, x1 = 0.003828): 0.6919 ± 0.0058 mPa·s
viscosity (318.15 K, 101 kPa, x1 = 0.005245): 0.7256 ± 0.0059 mPa·s
viscosity (318.15 K, 101.3 kPa, x1 = 0.000445): 0.606 ± 0.014 mPa·s
viscosity (318.15 K, 101.3 kPa, x1 = 0.000886): 0.618 ± 0.015 mPa·s
viscosity (318.15 K, 101.3 kPa, x1 = 0.00133): 0.63 ± 0.015 mPa·s
viscosity (318.15 K, 101.3 kPa, x1 = 0.00177): 0.642 ± 0.015 mPa·s
viscosity (318.15 K, 101.3 kPa, x1 = 0.002215): 0.653 ± 0.015 mPa·s
